Data published in ChEMBL document CHEMBL1201862, “PubChem BioAssay data set” (2004).
Activity calls are given as the source filed them.

Assays:
[1] = cytotoxicity in MIN6 insulinoma cells, dose response, cytotoxicity control, cell-based, mouse insulinoma (AID 2122); format: functional;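 note: confirmatory high-throughput counterscreen run to flag cytotoxic compounds; mouse MIN-6 beta cells carrying an insulin promoter eGFP reporter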
[2] = system: INS1; assay: beta cell apoptosis inhibitors, cytokine rescue, dose response, luminescence, retest (AID 449756); format: functional, cell-based; details: Rattus norvegicus;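 note: cell death triggered by IL-1 beta plus TNF-alpha plus IFN-gamma mixture; protective hits raise ATP signal compared with cytokine alone wells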
[3] = molecular target: T1, Histone-lysine N-methyltransferase NSD2 (Homo sapiens, UniProt O96028); format: biochemical
T1 sequence (O96028 whole entry): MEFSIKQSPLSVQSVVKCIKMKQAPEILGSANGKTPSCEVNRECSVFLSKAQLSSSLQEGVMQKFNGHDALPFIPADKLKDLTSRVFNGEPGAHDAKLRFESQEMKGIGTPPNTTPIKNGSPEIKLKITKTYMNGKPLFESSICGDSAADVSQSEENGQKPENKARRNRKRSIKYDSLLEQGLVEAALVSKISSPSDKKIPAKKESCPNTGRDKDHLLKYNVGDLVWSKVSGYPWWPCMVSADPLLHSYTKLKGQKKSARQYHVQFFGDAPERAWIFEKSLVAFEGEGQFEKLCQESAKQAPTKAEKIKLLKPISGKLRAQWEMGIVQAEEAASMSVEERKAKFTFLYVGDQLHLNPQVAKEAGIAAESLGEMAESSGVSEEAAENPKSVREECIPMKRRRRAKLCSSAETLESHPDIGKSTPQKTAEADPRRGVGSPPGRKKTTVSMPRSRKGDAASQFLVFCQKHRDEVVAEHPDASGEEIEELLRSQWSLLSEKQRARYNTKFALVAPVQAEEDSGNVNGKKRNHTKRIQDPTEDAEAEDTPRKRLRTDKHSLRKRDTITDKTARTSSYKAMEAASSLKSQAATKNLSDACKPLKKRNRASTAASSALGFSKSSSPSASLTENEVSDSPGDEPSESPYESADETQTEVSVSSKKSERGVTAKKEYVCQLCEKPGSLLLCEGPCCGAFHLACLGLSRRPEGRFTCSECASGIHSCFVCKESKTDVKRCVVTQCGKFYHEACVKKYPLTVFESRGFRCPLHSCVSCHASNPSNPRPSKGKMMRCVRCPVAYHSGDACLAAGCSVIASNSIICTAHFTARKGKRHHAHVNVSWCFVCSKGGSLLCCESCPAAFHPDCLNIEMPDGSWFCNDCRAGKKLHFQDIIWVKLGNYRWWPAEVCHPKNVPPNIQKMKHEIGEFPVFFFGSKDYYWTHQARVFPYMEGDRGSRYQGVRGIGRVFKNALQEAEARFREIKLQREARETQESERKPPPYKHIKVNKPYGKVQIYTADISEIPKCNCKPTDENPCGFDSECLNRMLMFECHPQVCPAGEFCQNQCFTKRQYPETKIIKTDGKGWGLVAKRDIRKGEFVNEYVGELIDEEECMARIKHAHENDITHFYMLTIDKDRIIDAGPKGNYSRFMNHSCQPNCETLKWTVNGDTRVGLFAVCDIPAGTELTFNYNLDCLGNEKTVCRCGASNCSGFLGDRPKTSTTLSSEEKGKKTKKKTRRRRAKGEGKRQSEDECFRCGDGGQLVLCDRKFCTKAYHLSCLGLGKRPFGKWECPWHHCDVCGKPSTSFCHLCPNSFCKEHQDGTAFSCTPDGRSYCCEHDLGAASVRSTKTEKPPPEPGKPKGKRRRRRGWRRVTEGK

[4] = insulin promoter down-regulators in MIN6 cells, imaging, high-content screening, mouse beta cells (AID 1628); format: functional
[5] = molecular target: T2, Adenosylmethionine-8-amino-7-oxononanoate aminotransferase (Mycobacterium tuberculosis, UniProt P9WQ81); assay: Mycobacterium tuberculosis BioA enzyme inhibitor Measured in Biochemical System Using Plate Reader - 2163-02_Inhibitor_Dose_CherryPick_Activity.; format: functional, Mycobacterium tuberculosis UT205
T2 sequence (P9WQ81 whole entry): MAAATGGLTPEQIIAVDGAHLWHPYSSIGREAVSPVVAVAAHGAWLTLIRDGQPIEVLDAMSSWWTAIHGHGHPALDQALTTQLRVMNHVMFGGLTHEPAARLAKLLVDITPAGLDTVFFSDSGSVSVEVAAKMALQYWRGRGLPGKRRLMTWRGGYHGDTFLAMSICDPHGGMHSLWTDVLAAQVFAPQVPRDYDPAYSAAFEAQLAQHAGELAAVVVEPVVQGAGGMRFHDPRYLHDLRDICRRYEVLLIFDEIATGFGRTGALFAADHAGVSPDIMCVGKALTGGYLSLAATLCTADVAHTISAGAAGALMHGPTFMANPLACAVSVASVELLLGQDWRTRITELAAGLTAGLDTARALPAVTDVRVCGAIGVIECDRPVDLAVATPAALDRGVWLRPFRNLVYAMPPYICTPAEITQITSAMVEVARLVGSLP

[6] = system: Vero; assay: Vero cell cytotoxicity, cytotoxicity control for flavivirus capping enzyme inhibitors (AID 588742); format: functional; details: Chlorocebus sabaeus
[7] = molecular target: T3, Small ubiquitin-related modifier 1 (Homo sapiens, UniProt P63165); assay: inhibitors of SUMO1 peptide binding, dose response, biochemical, fluorescence polarization, uHTS hits (AID 624382); format: functional; details: read-out: IC50_Mean
T3 sequence (P63165 whole entry): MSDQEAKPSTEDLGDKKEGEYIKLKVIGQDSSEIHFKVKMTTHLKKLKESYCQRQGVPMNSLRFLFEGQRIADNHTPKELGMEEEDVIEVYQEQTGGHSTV

[8] = molecular target: T3, Small ubiquitin-related modifier 1; assay: inhibitors of SUMO1 partner interactions, dose response, biochemical, FRET (AID 624383); format: functional; details: read-out: IC50_Mean
[9] = molecular target: T4, Endoribonuclease toxin MazF (Escherichia coli K-12, UniProt P0AE70); assay: fluorescent RNA oligo signal without MazF, dose response, counter-screen for MazEF activator project, biochemical, fluorescence, single-stranded RNase substrate (AID 588502); format: functional
T4 sequence (P0AE70 whole entry): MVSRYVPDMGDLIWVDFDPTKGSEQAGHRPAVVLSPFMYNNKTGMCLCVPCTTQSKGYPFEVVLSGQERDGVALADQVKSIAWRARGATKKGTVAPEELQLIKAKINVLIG

[10] = molecular target: T4, Endoribonuclease toxin MazF; assay: MazF toxin RNase activators, dose response, biochemical, fluorescence, single-stranded RNA substrate, uHTS hits (AID 588481); format: functional
[11] = molecular target: Protein Wnt-3a (Mus musculus, UniProt P27467); assay: Wnt3a-driven reporter signaling inhibition, dose response, selectivity assay for Gli-SUFU antagonist project, Wnt-LIGHT cells, luminescence (AID 651570); format: functional; details: read-out: IC50_Mean;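 note: Wnt-LIGHT reporter cells stimulated with conditioned medium from Wnt3a-producing cells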
Sequence of Protein Wnt-3a (P27467 whole entry): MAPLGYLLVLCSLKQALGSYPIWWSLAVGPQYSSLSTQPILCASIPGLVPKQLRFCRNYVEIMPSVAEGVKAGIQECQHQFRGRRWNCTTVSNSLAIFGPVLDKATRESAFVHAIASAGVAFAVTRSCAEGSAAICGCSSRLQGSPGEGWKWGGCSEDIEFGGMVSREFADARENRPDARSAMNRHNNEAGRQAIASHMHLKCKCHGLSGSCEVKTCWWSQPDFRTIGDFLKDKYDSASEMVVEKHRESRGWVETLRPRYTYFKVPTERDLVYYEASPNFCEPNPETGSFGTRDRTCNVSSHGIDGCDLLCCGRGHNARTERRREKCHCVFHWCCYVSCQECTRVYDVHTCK

[12] = molecular target: Melanocortin receptor 4 (Homo sapiens, UniProt P32245); format: functional, cell-based;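 note: Cell-based assay with luminescence read-out, confirmatory dose-response testing for agonist activity of biased ligands at MC4R; human U2OS cells with tagged receptor and beta-arrestin; potency of agonists that increase receptor coupling to beta-arrestin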
Sequence of Melanocortin receptor 4 (P32245 whole entry): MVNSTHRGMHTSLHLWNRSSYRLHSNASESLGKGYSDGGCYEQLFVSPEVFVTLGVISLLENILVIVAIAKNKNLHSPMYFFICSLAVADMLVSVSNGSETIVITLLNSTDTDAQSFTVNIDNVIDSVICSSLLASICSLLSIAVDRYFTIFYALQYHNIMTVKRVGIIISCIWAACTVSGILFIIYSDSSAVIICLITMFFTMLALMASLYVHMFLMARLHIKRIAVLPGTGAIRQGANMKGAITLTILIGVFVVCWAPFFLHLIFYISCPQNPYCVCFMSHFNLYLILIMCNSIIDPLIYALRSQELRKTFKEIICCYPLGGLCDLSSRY

[13] = inhibitors of firefly luciferase expression or activity, dose response, H4 neuroglioma cells, luminescence (AID 1990); format: functional, cell-based
[14] = Luminescence Cell-Based Dose Response HTS to Identify Inhibitors of 5'UTR Stem-Loop Driven Prion Protein mRNA Translation in H4 Neuroglioblastoma Cells. [Related pubchem assays: 1827 (Project Summary), 1813 (Primary HTS)]; format: functional
[15] = inhibitors of SNCA 5'UTR-driven reporter translation, confirmation, H4 neuroglioma cells, luminescence (AID 1988); format: functional, cell-based
[16] = Luminescence Cell-Based Dose Retest to Confirm Inhibitors of Cancer Stem Cells. [Related pubchem assays (depositor defined):AID2717, AID2721]; format: functional; details: Homo sapiens
[17] = molecular target: T5, Rac GTPase-activating protein 1 (Homo sapiens, UniProt Q9H0H5); assay: MgcRacGAP GTPase-activating activity inhibitors, confirmation, biochemical, ADP Hunter fluorescence, primary and confirmatory (AID 624330); format: functional
T5 sequence (Q9H0H5 whole entry): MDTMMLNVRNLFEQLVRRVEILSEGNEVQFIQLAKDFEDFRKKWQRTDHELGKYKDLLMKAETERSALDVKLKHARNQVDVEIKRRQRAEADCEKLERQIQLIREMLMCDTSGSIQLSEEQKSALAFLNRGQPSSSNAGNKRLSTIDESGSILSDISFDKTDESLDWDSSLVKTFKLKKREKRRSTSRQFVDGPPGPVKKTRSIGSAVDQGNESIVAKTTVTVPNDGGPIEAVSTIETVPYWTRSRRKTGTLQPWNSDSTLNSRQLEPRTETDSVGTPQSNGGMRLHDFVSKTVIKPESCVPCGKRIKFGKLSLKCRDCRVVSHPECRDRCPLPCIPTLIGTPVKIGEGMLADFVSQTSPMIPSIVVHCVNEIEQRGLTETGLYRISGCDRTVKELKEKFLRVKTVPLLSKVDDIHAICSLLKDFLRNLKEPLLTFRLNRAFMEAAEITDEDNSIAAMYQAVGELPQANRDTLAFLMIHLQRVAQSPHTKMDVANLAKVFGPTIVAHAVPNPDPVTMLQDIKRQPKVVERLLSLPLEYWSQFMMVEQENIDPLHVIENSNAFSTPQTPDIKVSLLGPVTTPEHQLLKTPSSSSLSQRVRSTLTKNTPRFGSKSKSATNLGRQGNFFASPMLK

[18] = HeLa cell cytotoxicity, dose response, cytotoxicity control for MgcRacGAP inhibitor project (AID 624300); format: functional
[19] = molecular target: T6, Probable nicotinate-nucleotide adenylyltransferase (Staphylococcus aureus (strain N315), UniProt P65502); format: functional, Staphylococcus aureus subsp. aureus N315; details: read-out: IC50_Mean;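 for IC50 Mean: confirmatory dose-response retesting of NadD inhibitor hits first found in an ultra-high-throughput screen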
T6 sequence (P65502 whole entry): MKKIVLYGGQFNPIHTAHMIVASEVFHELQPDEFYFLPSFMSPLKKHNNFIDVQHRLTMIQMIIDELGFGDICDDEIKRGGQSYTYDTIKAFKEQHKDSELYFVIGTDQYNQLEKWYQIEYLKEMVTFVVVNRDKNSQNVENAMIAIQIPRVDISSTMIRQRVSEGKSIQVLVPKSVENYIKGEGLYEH

[20] = molecular target: T6, Probable nicotinate-nucleotide adenylyltransferase; format: functional, Staphylococcus aureus subsp. aureus N315
[21] = microbe, parasite or virus in culture; format: functional; details: Mycobacterium tuberculosis
[22] = HEp-2 cell cytotoxicity, dose response, cytotoxicity control for RSV inhibitor project, HTS (AID 2410); format: functional; details: human respiratory syncytial virus
[23] = molecular target: Photoreceptor-specific nuclear receptor (Homo sapiens, UniProt Q9Y5X4); format: functional, cell-based;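 note: CHO-S cells with Gal4-NCOR and VP16-NR2E3 two-hybrid luciferase reporter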
Sequence of Photoreceptor-specific nuclear receptor (Q9Y5X4 whole entry, the tested form may be a part): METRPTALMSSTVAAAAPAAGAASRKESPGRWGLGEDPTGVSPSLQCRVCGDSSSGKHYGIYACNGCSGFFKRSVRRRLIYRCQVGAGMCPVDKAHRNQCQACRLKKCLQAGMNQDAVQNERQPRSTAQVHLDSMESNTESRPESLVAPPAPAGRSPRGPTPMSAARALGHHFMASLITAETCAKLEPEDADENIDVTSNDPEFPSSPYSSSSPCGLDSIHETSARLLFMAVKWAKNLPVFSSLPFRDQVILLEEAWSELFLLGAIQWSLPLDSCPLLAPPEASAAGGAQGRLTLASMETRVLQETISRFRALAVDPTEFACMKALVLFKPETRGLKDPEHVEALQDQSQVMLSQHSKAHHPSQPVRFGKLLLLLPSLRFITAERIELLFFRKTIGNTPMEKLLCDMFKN

[24] = molecular target: Genome polyprotein (dengue virus type 2, UniProt P29990); assay: Dengue-2 NS5 methyltransferase inhibitors, primary screen, biochemical, confirmation dose response (AID 588689); format: functional
Sequence of Genome polyprotein (P29990 2492-3391 limits assumed): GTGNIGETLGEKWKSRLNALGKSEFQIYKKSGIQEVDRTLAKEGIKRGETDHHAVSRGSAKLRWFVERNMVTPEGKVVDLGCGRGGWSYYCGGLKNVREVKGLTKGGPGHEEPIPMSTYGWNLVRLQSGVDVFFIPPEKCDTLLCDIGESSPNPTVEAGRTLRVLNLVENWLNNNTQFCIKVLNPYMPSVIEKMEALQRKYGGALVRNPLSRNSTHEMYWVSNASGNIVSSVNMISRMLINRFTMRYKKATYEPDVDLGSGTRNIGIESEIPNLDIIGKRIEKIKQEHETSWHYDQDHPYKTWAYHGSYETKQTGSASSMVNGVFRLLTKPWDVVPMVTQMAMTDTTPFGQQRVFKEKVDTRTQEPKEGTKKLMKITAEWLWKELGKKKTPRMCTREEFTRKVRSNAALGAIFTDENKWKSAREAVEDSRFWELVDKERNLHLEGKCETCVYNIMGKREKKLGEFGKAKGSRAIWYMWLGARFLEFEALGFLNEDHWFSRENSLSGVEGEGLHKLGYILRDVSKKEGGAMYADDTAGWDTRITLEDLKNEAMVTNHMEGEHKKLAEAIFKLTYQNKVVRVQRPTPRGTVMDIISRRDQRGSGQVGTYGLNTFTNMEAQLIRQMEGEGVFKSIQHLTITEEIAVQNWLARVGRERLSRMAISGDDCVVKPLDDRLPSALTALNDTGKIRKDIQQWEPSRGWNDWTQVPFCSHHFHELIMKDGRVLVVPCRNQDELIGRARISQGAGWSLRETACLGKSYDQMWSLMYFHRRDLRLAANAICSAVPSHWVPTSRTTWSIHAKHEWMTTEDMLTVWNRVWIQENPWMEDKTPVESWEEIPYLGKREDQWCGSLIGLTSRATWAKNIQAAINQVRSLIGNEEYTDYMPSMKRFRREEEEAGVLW

[25] = system: Vero; assay: cells; format: functional; details: Chlorocebus sabaeus
[26] = molecular target: Glucose-6-phosphate 1-dehydrogenase (Homo sapiens, UniProt P11413); assay: human G6PD enzyme inhibitors, dose response, selectivity assay for P. falciparum G6PD inhibitor project, biochemical, fluorescence (AID 504792); format: functional
Sequence of Glucose-6-phosphate 1-dehydrogenase (P11413 whole entry): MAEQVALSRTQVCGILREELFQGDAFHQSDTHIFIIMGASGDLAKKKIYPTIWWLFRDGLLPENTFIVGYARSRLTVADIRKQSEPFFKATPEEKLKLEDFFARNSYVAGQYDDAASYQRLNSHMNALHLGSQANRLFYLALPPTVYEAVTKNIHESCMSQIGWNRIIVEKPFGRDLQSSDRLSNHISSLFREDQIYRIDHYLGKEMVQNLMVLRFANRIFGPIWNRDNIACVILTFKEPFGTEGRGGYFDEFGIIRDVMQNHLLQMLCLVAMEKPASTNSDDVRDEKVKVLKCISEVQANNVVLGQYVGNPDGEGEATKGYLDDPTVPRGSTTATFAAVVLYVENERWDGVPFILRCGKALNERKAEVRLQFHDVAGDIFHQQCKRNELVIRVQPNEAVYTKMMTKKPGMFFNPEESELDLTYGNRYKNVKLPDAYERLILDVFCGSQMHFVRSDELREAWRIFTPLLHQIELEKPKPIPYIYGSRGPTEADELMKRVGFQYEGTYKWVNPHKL

[27] = molecular target: T7, Low molecular weight phosphotyrosine protein phosphatase (Homo sapiens, UniProt P24666); format: functional; details: read-out: IC50_Mean;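 note: Dose-response confirmation assay measuring inhibition of LMPTP enzyme activity by fluorescence intensity read-out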
T7 sequence (P24666 whole entry): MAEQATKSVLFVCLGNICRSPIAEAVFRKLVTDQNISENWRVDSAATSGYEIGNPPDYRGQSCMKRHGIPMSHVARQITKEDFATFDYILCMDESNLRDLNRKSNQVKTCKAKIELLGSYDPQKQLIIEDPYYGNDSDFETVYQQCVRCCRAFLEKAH

CN1/C(=C\C(=O)COC(=O)c2ccc(O)c(O)c2)C(C)(C)c2ccccc21
IC50 [1]: 0.454 µM (active) | AC50 [2]: 6.68 µM (active) | AC50 [3]: > 20 µM (inactive) | IC50 [4]: 0.784 µM (active)

CC(=O)N1CCN(c2ccc([N+](=O)[O-])cc2C=C2C(=O)NC(=O)NC2=O)CC1
AC50 [5]: 8.51 µM (active)

C=CCn1c(=S)[nH]c2scc(-c3ccc(C)o3)c2c1=O
CC50 [6]: 37.2 µM (active)

Cc1[nH]c2ccc(C(=O)OCC(=O)Nc3cccc(S(N)(=O)=O)c3)cc2c1C
IC50 [7]: > 66.6 µM (inactive) | IC50 [8]: 0.624 µM (active)

CCOC(=O)CSc1nc2cc(OC)ccc2cc1C#N
EC50 [9]: > 99 µM (inactive) | EC50 [10]: > 99 µM (inactive)

COc1ccccc1CN(Cc1nc(O)c2ccccc2n1)S(=O)(=O)c1ccc(C)cc1
IC50 [11]: 32.7 µM (inactive)

COc1ccc(NC(=O)Nc2nnc(-c3ccccc3SCc3ccccc3)s2)cc1
EC50 [12]: > 89.2 µM (inactive)

O=S(=O)(c1ccc2c(c1)nc(COc1ccc(Cl)cc1)n2CC1CCCO1)N1CCOCC1 (stereo not given)
EC50 [13]: 19.6 µM (active) | EC50 [14]: > 120 µM (not active) | IC50 [11]: 4.1 µM (active) | EC50 [15]: 15.8 µM (active)

COc1ccc(-c2csc(C3=C(N)N(Cc4ccc(Cl)cc4)CC3=O)n2)cc1OC
EC50 [13]: > 120 µM (not active) | EC50 [12]: > 89.2 µM (inactive) | EC50 [14]: 32.9 µM (active) | EC50 [15]: 85.3 µM (active)

CC(C)(C)c1cc(Cl)ccc1OCCOCCN1CCCC1
AC50 [16]: 6.93 µM (active) | IC50 [17]: 104 µM (active) | CC50 [18]: 67.4 µM (active)

COC(=O)C1=C(COc2ccccc2)NC(=O)NC1c1ccc(Br)cc1 (stereo not given)
IC50 [7]: > 66.6 µM (inactive) | IC50 [8]: 15.2 µM (active)

Cc1ccc2[nH]c(=O)c(CN(CCc3ccccc3)C(c3nnnn3Cc3ccco3)C(C)C)cc2c1 (stereo not given)
IC50 [19]: 20 µM (active) | IC50 [20]: 12.1 µM (active)

Cc1n[nH]c(O)c1C(c1ccc(-c2ccc(Cl)c(Cl)c2)o1)c1c(C)n[nH]c1O
CC50 [21]: 28.1 µM (active) | CC50 [6]: 20.8 µM (active) | CC50 [22]: 15.2 µM (active)

COc1ccc(NC2c3ccccc3C(=O)N2Cc2ccccc2Cl)cc1OC (stereo not given)
IC50 [23]: 1.5 µM (active)

Cc1nc(=O)c(-c2ccccc2)c(C)n1-c1ccc(Br)cc1
AC50 [5]: 15.6 µM (active)

O=C(OC(c1ccccc1)c1nccc2ccccc12)c1ccccc1 (stereo not given)
IC50 [23]: 36.1 µM (inactive)

CCCCC[C@@H]1C=C(C(=O)O)[C@H](c2ccc(Cl)cc2)N1S(=O)(=O)c1ccc(C)cc1
CC50 [6]: > 40 µM (active) | IC50 [24]: 42.3 µM (active)

O=C(N[C@H]1C/C=C\C[C@@H](CC(=O)N(CCO)Cc2ccccc2)C(=O)N[C@H](Cc2c[nH]c3ccccc23)COC1=O)OCC1c2ccccc2-c2ccccc21
IC50 [11]: 17.8 µM (active)

CN(C)c1nc(=NCc2cccs2)ss1
IC50 [17]: 134 µM (active) | CC50 [25]: 19 µM (active) | CC50 [18]: 100 µM (active) | IC50 [26]: > 80 µM (inactive)

C#Cc1ccc([C@H]2C=C(C(=O)NCc3nc4ccccc4[nH]3)O[C@@H](OCc3ccc(CO)cc3)C2)cc1
IC50 [19]: 20.7 µM (active) | IC50 [20]: 10.5 µM (active)

COc1cc(NC(=O)Nc2nc(C(N)Cc3ccc(C(F)(F)F)cc3)cs2)cc(OC)c1OC (stereo not given)
EC50 [12]: > 89.2 µM (inactive)

COc1ccc(-c2cc(C(=O)Nc3cc(Cl)ccc3O)no2)cc1
IC50 [27]: 2.91 µM (active)

CC(=O)O[C@]1(C(C)=O)CC[C@H]2[C@@H]3C=C(C)C4=CC(=O)CC[C@]4(C)[C@H]3CC[C@@]21C [MEGESTROL ACETATE]
AC50 [5]: 11 µM (active)
